Assay results published in US7521192B2, “EDG: modulators of lymphocyte activation and migration” (Rigel Pharmaceuticals, Inc., priority 2001, dated 2009).
Entries after “also recorded” stand apart in the source; their conditions may differ.

Assays:
Jurkat cells [1] = assay: SPP-induced migration assay in Jurkat cells; assay type: cell-based, human
Source text: (§1) “Lymphocyte migration” refers to migration of B and T lymphocytes to and from primary and secondary lymphoid organs (e.g., bone marrow, thymus, lymph nodes, spleen, Peyer's patch, and tonsils), the periphery, and non-lymphoid tissues via the blood stream, lymphatic vessels, and by penetration of capillary walls (see, e.g., Paul, Immunology (3rd ed., 1993) (Chapters 4 and 6)). […] SPP and LPA are present in serum and are produced by a number of cells, including platelets and fibroblasts. Ligand-induced lymphocyte migration can be measured using the assay described in FIG. 33A, in which lymphocytes migrate toward the ligand from an upper to a lower chamber. The sphingolipid analog compound 2-amino-2(2-[4-octylphenyl]ethyl)-1,3-propanediol hydrochloride and analogs thereof inhibit such migration. The C-terminus of EDG-1 appears to be involved in migration. Such domains (e.g., the cytoplasmic tail of EDG-1) can be used in high throughput binding assays for compounds that modulate lymphocyte migration.
(§2) As described above, in one embodiment, lymphocyte activation is measured by contacting T cells comprising an EDG target with a potential modulator and activating the cells with an anti-TCR antibody. […] In another embodiment, lymphocyte migration is measured by observing T cell migration from an upper to a lower chamber containing an EDG ligand such as SPP.

primary T cell = assay: SPP-induced primary T cell migration; assay type: cell-based; conditions: primary T cells
Source text: as §1, §2

EDG-1 [2] = biological target: T1, EDG-1 (Homo sapiens, UniProt P21453); assay: EDG-1 wild-type enhanced SPP-induced migration in Jurkat cells; assay type: cell-based; conditions: Jurkat cells expressing EDG-1 wild-type
T1 sequence (P21453 whole entry): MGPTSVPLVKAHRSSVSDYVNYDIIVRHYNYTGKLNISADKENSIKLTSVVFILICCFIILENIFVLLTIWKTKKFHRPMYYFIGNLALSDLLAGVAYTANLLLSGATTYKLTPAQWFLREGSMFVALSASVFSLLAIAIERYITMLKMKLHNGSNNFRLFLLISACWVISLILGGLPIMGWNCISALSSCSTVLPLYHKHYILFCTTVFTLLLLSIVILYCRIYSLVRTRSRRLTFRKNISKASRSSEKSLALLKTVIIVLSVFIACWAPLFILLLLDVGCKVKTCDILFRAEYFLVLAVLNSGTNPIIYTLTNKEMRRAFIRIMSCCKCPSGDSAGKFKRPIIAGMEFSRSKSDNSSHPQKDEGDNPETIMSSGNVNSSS
Source text: (§3) “Lymphocyte migration” refers to migration of B and T lymphocytes to and from primary and secondary lymphoid organs (e.g., bone marrow, thymus, lymph nodes, spleen, Peyer's patch, and tonsils), the periphery, and non-lymphoid tissues via the blood stream, lymphatic vessels, and by penetration of capillary walls (see, e.g., Paul, Immunology (3rd ed., 1993) (Chapters 4 and 6)). […] SPP and LPA are present in serum and are produced by a number of cells, including platelets and fibroblasts. Ligand-induced lymphocyte migration can be measured using the assay described in FIG. 33A, in which lymphocytes migrate toward the ligand from an upper to a lower chamber.
(§4) As described above, in one embodiment, lymphocyte activation is measured by contacting T cells comprising an EDG target with a potential modulator and activating the cells with an anti-TCR antibody. Modulation of T cell activation is identified by screening for cell surface marker expression, e.g., CD69 expression levels, using fluorescent antibodies and FACS sorting. In another embodiment, lymphocyte migration is measured by observing T cell migration from an upper to a lower chamber containing an EDG ligand such as SPP.

EDG-1 [3] = biological target: T1, EDG-1; assay: EDG-1 wild-type induced CD69 inhibition in Jurkat cells; assay type: cell-based; conditions: Jurkat cells expressing EDG-1 wild-type
Protocol: Stimulation: For CD69 upregulation experiments, tTA-Jurkat cells were split to 2.5×10^5 cells/ml 24 hours prior to stimulation. Cells were spun and resuspended at 5×10^5 cells/ml in fresh complete RPMI medium in the presence of 100 ng/ml [MUT] (anti-Jurkat clonotypic TCR) or 5 ng/ml PMA hybridoma supernatant for 20-26 hours at 37° C., and then assayed for surface CD69 expression. Cell surface marker analysis: Jurkat-N cells were stained with an APC-conjugated mouse monoclonal anti-human CD69 antibody (Caltag) at 4° C. for 20 minutes and analyzed using a Facscalibur instrument (Becton Dickinson) with Cellquest software. Cell sorts were performed on a MoFlo (Cytomation).

EDG-1 [4] = biological target: T1, EDG-1; assay: EDG-1 mediated SPP-induced lymphocyte migration; assay type: cell-based; conditions: lymphocytes migrating toward ligand from upper to lower chamber
Source text: as §3, §4

BJAB cells = assay: anti-BCR-induced CD69 upregulation in naive BJAB cells; assay type: cell-based
Jurkat cells [5] = assay: anti-TCR-induced CD69 upregulation in naive Jurkat cells; assay type: cell-based, human
Protocol: Stimulation: For CD69 upregulation experiments, tTA-Jurkat cells were split to 2.5×10^5 cells/ml 24 hours prior to stimulation. Cells were spun and resuspended at 5×10^5 cells/ml in fresh complete RPMI medium in the presence of 100 ng/ml […] (anti-Jurkat clonotypic TCR) or 5 ng/ml PMA hybridoma supernatant for 20-26 hours at 37° C., and then assayed for surface CD69 expression. Cell surface marker analysis: Jurkat-N cells were stained with an APC-conjugated mouse monoclonal anti-human CD69 antibody (Caltag) at 4° C. for 20 minutes and analyzed using a Facscalibur instrument (Becton Dickinson) with Cellquest software. Cell sorts were performed on a MoFlo (Cytomation).

EDG-1 [6] = biological target: T1, EDG-1; assay: anti-BCR induced CD69 upregulation in BJAB cells expressing TIG-EDG-1 constructs; assay type: cell-based
EDG-1 [7] = assay: as above; assay type: cell-based

SMILES | effect on SPP-induced migration (Jurkat cells [1]; Jurkat cells) | effect on SPP-induced primary T cell migration (primary T cell) | effect on EDG-1 wild-type enhanced SPP-induced migration (EDG-1 [2]) | effect on EDG-1 wild-type induced CD69 inhibition (EDG-1 [3]) | effect on EDG-1 mediated SPP-induced (ligand-induced) lymphocyte migration (EDG-1 [4]; listed as 2-amino-2(2-[4-octylphenyl]ethyl)-1,3-propanediol hydrochloride) | effect on EDG-1 mediated SPP-induced (ligand-induced) lymphocyte migration (EDG-1 [4]; hydrochloride) | effect on anti-BCR-induced CD69 upregulation (BJAB cells; in the presence of CS-FBS) | effect on anti-BCR-induced CD69 upregulation (BJAB cells; regular serum) | effect on anti-TCR-induced CD69 upregulation (Jurkat cells [5]; in the presence of CS-FBS) | effect on anti-TCR-induced CD69 upregulation (Jurkat cells [5]; regular serum) | effect on wild-type EDG-1 inhibition of anti-BCR induced CD69 upregulation (EDG-1 [6]; BJAB cells expressing wild-type EDG-1) | dose dependence of wild-type EDG-1 inhibition of anti-BCR induced CD69 upregulation (EDG-1 [6]; cells overexpressing wild-type EDG-1, SPP added) | effect on anti-BCR induced CD69 upregulation (EDG-1 [7]; BJAB cells expressing TIG vector) | effect on the inhibition of EDG-1 mediated anti-BCR induced CD69 upregulation (EDG-1 [7]; BJAB cells, FIGS. 29 and 30) | migration of Jurkat cells (Jurkat cells [1]; Jurkat cells migrating toward ligand)
CCCCCCCCc1ccc(CCC(N)(CO)CO)cc1.Cl [FTY720, 2-amino-2(2-[4-octylphenyl]ethyl)-1,3-propanediol hydrochloride] | no effect | inhibits | inhibits | no effect | inhibit | blocked | – | – | – | – | – | – | – | – | –
CCCCCCCCCCCCC/C=C/[C@@H](O)[C@@H](N)COP(=O)(O)O [SPP, sphingosine-1-phosphate] | – | – | – | – | – | – | no effect | no effect | no effect | no effect | potentiates | dose-dependent manner; also recorded: dose dependent manner | no effect | no effect | induced migration
